# Experimental data reported in patent publication US20230181632A1 (CHEMAS CO., LTD., priority 2020, published 2023).
# Read-outs that look alike come from different tables or passages of the source.
# How the values were obtained:
# Vero E6 cells [1] = format: cell-based, African green monkey; conditions: same RNA samples as transcriptomic assay, normalized to 18s rRNA
# [2] = test system: SARS-CoV-2-infected Vero E6 cells; format: cell-based, African green monkey; conditions: 2,000-fold diluted, 36 or 72 hours
# SARS-CoV-2 = format: cell-based
# Vero E6 cells [3] = experiment: MTT cytotoxicity assay; format: cell-based, African green monkey; conditions: 48 hours
# Protocol: Vero E6 cells, which are derived from kidney cells extracted from an African green monkey, were seeded at a density of 1×10^4 cells/well into 96-well plates and incubated overnight in DMEM (Dulbecco's modified Eagle's medium) supplemented with glucose, 10% FBS (fetal bovine serum), 1% PS (penicillin+streptomycin), 1% L-glutamine 200 mM, 1% sodium pyruvate 100 mM, and nonessential amino acids before being washed with a PBS buffer.
# Cytotoxicity was examined through an MTT assay. The MTT assay is a colorimetric assay for assessing cytotoxicity or viability by taking advantage of the mitochondrial ability to convert the yellow water-soluble substrate MTT tetrazolium into purple insoluble formazan product […] by the action of oxidoreductase enzymes present in mitochondria of living cells.
# The cultured Vero E6 cells were seeded into 96-well plates. A 1% (w/v) solution of tetraarsenic hexoxide (As4O6) in distilled water was 1,000- to 20,000-fold diluted (As4O6 25.27 μM-1.26 μM) in DMEM and each of the dilutions was applied to the 96-well plates in duplicate, followed by incubation for 48 hours. […] Incubation at room temperature for 15 minutes made the formazan crystals completely dissolved, followed by reading absorbance at 570 nm (A570 nm) on a microplate.
# [4] = […], 3,000-fold diluted (8.42 μM), 3 days, Vero E6
# [5] = […], 4,000-fold diluted (6.32 μM), 3 days, Vero E6
smiles,measurement,setting,value
O1[As]2O[As]3O[As]1O[As](O2)O3 [tetraarsenic hexoxide],"expression of the genes BAG3, CRYAB, HSPH1, HMOX1 and ZFAND2A (RT-PCR)",Vero E6 cells [1],upregulated expressions
same,"expression of the cytokine genes CSF1, PDGFA, PDGFB, CXCL1, CXCL2, CXCL3, CXCL8, CXCL10, CCL2, and CCL20 (transcriptome)",[2],remarkably downregulated
same,expression of the gene ZFAND2A (transcriptome),[2],increased
same,"expression of the genes BAGS, HSPA1B, CRYAB, HMOX1, and HSPH1 (transcriptome)",[2],upregulated
same,% Inhibition of CPE,SARS-CoV-2,100%
same,% Inhibition of CPE (cytopathic effect),SARS-CoV-2,100%
same,% Inhibition of CPE,SARS-CoV-2; [4],87.5% (7/8well)
same,% Inhibition of CPE (cytopathic effect),SARS-CoV-2; [4],37.5% (3/8well)
same,% Inhibition of CPE,SARS-CoV-2; [5],87.5% (7/8well)
same,% Inhibition of CPE (cytopathic effect),SARS-CoV-2; [5],37.5% (3/8well)
same,inhibition against viral growth,"SARS-CoV-2; […], across tested dilutions",87-100%
same,Cytotoxicity (MTT),"Vero E6 cells [3]; 1% (w/v) solution, 2,000-fold or greater dilutions",the cells survived and did not undergo cell death
same,Cytotoxicity (MTT),"Vero E6 cells [3]; 1% (w/v) solution, up to 1,000-fold dilution (25.27 μM)",exhibited cytotoxicity leading to cell death
